Experimental data as given in patent US4513007A, “Method for treating heart disease” (priority 1983, dated 1985).

Tests used:
acute toxicity study = conditions: in vivo, mice and rats
cardiac lymphatics [1] = test: post-mortem cardiac lymphangiography in normal dog hearts (first study); assay type: in vivo, mongrel dogs; conditions: normal myocardium; for No of lymphatics per cm^2 / Equivalence to ventricular surface: 6 h after i.v., Hyaluronidase 500 I.U./kg, calcium dobesilate 50-100 mg/kg; for No of lymphatics per cm^2: controls 1.64 ± 0.11, P <0.001 in relation to control; for Equivalence to ventricular surface: controls 6.6%, P <0.001
Description: I. In a first study the effect of calcium dobesilate was compared to Hyaluronidase on the visualization of cardiac lymphatics in normal dog hearts (not infarcted). 18 healthy mongrel dogs of either gender were divided into 3 groups each of 6 animals. […] The dogs in the second group received an intravenous injection of Hyaluronidase (500 I.U./kg) and those of the third group received an i.v. injection of calcium dobesilate (50-100 mg/kg). Post-mortem cardiac lymphangiography was performed after killing the animals and extracting the hearts 6 hours after the administration of either product. The results of the 2 groups were compared to that of the controls. The technique of cardiac lymphangiography used was that described by Szlavy L., Adams D., Hollenberg N. K. and Abrams H., published in the American Heart Journal, Vol. 100, Nr. 3, pp 323-331, Sept. 1980 (8). The technique consisted in injecting a contrast agent (30 g barium sulphate+2-5 ml of Iodamid 420) into the superficial lymphatic vessels of the heart using a Becton-Dickinson lymphangiography set. The contrast agent was injected under gentle manual pressure until the lymphatic vessels in the left ventricle were filled (multiple injections starting from the apex to the base of the heart). The heart was then X-rayed with 5-fold magnification using a 0,1 mm focal spot X-raytube and with exposure factors of 50 KV, 0,01 second and 30 mA. With this technique it was possible to visualize the 40-80 microns lymphatic vessels. A grid was applied on the lymphangiograms which consisted of lines drawn at right angles, 1 cm apart. Each 5×5 cm^2 served as a single unit as it corresponded to 1 cm^2 of the left ventricular myocardium (5-fold magnification was used for filming). A point was counted whenever a crossing coincided with a visualized lymph vessel in the lymphangiogram. In this way a quantitative index was obtained based on the number of lymph vessels/cm^2 or to the percent of the left ventricular surface area.

cardiac lymphatics [2] = test: cardiac lymphangiography in normal dogs and dogs with LAD coronary artery ligation (second study); assay type: in vivo, mongrel dogs; conditions: 100 mg/kg i.v.
Description: II. The second study was performed to evaluate the influence of calcium dobesilate on the visualization of the lymphatic vessels in the infarcted and non-infarcted zones after ligation of the left anterior descending (LAD) coronary artery in 37 mongrel dogs. In 6 dogs the coronary artery was not occluded (group I). […] Therefore a larger control series was not required. In 6 normal dogs CLS 2210 (calcium dobesilate) was administered in a single dose of 100 mg/kg by intravenous infusion in 100 ml of physiological saline or glucose. Six hours after administration of CLS 2210 (calcium dobesilate) the dogs were killed and cardiac lymphangiography was performed post-mortem (group I) as described above (8). In 7 dogs the coronary artery was occluded and lymphangiography was performed post-mortem 30 minutes after the occlusion (group II). In 6 other dogs the coronary artery was occluded and lymphangiography was performed 360 minutes after coronary artery occlusion (group III). An additional 12 dogs were treated with CLS 2210 (calcium dobesilate) in a single dose of 100 mg/kg by intravenous infusion immediately after coronary artery occlusion. In 6 of these dogs, post-mortem lymphangiography was performed 30 minutes following coronary artery occlusion (group II), and in the other 6 it was performed 360 minutes after occlusion (group III). The infarcted zone of myocardium was identified in vivo by direct inspection after coronary artery occlusion according to the usual indices, including color change and disordered contraction. […] Both the infarcted (LAD) and non-infarcted zones (the non-[…] zone was the region of the left circumflex coronary artery or LCC) were evaluated, the non-infarcted zone serving for comparison. Mean values were presented with the standard error of the mean as the index of dispersion. Statistical analysis was done, where appropriate, with the student t-test or by non-parametric methods in the form of the Wilcoxon ranks sum test or Fisher's s exact test. The null hyothesis was rejected when p was less than 0,05.

[3] = system: dogs with experimental myocardial infarction; test: electrocardiographic tracings in dogs after coronary artery ligation (second study); assay type: in vivo, mongrel dogs; conditions: group III treated dogs, 360 min, 100 mg/kg i.v.
Description: In 7 dogs the coronary artery was occluded and lymphangiography was performed post-mortem 30 minutes after the occlusion (group II). In 6 other dogs the coronary artery was occluded and lymphangiography was performed 360 minutes after coronary artery occlusion (group III). An additional 12 dogs were treated with CLS 2210 (calcium dobesilate) in a single dose of 100 mg/kg by intravenous infusion immediately after coronary artery occlusion. In 6 of these dogs, post-mortem lymphangiography was performed 30 minutes following coronary artery occlusion (group II), and in the other 6 it was performed 360 minutes after occlusion (group III).

[4] = system: cardiac arrhythmia in dogs; test: cardiac arrhythmia in dogs induced by electrical stimulation (third study); assay type: in vivo, mongrel dogs; conditions: 4 hours of stimulation (>180 beats/minute); 50-75 mg/kg i.v. bolus; untreated: tachyarrhythmia bursts, extrasystoles
Description: III. In a third study it was evaluated the effect of calcium dobesilate on cardiac arrhythmia in dogs induced by electrical stimulation, to produce EKG changes and cardiac lymphostasis similar to those observed in sick sinus syndrome in man (4,5). […] The other three dogs served as controls. EKG records were made 4 hours later in all animal.

[5] = system: infarct size, left ventricle; assay type: in vivo, mongrel dogs
Description: IV. In a fourth study the influence of calcium dobesilate on infarct size was evaluated by the double-blind technique. The study was performed in 14 mongrel dogs of either gender weighing about 23-25 kg.
Anesthesia was induced and maintained with sodium pentobarbital (30 mg/kg) and ventilation was maintained through an endotracheal tube with a Harvard respirator providing 200-300 cc of room air/breath at a rate of 18-20/minute.
Coronary artery occlusion in all dogs was obtained by ligation of the LAD just distal to the first septal branch.
The left circumflex artery (LCC) was not ligated and its territory being non-infarcted was used as a control. After ligation of the LAD artery the chest was closed. Calcium dobesilate or the placebo were administered by intravenous perfusion during 7 days according to the following schedule:
0-1 hour after LAD ligation 100 mg/kg i.v. in 100 ml saline
2-3 hours after LAD ligation 100 mg/kg i.v. in 100 ml saline
4-6 hours after LAD ligation 75 mg/kg i.v. in 100 ml saline
7-12 hours after LAD ligation 50 mg/kg i.v. in 100 ml saline
13-24 hours after LAD ligation 50 mg/kg i.v. in 100 ml saline
2-5 days after LAD ligation 3 × 50 mg/kg i.v. in 50 ml saline
6-7 days after LAD ligation 3 × 25 mg/kg i.v. in 50 ml
After 7 days the animals were killed and the hearts were sliced in sections of 1 cm (from the apex to the base). The infarcted and non-infarcted zones of the left ventricle were planimetered to evaluate the infarct size in % in relation to the whole left ventricle. Then the infarcted and non infarcted zones were weighed to determine the size of the infarcted zone in grams in relation to the size of the whole left ventricle.

[6] = system: patients with fresh myocardial infarction; assay type: in vivo, human (patients)
Description: V. A preliminary clinical study was conducted on 100 patients with fresh myocardial infarction who had to fulfill the following criteria for admission: typical history of chest pain, with onset of less than six hours duration and having anterior or anteroseptal transmural myocardial infarction evidenced by 12 leads EKG criteria. 50 patients received the usual conventional drugs advocated in the hospital where the study was undertaken (potent analgesic, nitroglycerin, diuretics, lidocain, digitalis) and served as a comparison or control group. The other 50 patients received the conventional drugs and in addition calcium dobesilate which was given as follows: 100 mg/kg of calcium dobesilate by i.v. perfusion in 300 ml glucose, on admission 50-100 mg/kg of calcium dobesilate by i.v. perfusion in 300 ml glucose every hour during the subsequent 3 hours 25 mg/kg of calcium dobesilate by i.v. perfusion in 300 ml glucose every 6 hours until the 3rd-4th day after admission The treatment was then continued, by giving 500-1,000 mg of calcium dobesilate orally thrice daily.

cardiac lymphatics [7] = test: cardiac lymphangiography in normal dogs and dogs with LAD coronary artery ligation (second study); assay type: in vivo, mongrel dogs; conditions: intravenous infusion, dogs
rabbit ear = conditions: Roskam's method; U.S. Pat. No. 3,509,207; cited from earlier work
microvessels = conditions: cited from earlier work
[8] = system: dogs with coronary occlusion; conditions: cited from earlier work
[9] = system: patients with acute anterior myocardial infarction; conditions: intravenous; cited from earlier work
[10] = compared to controls (FIGS. 1-3)

Molecule: O=S(=O)(O)c1cc(O)ccc1O [calcium dobesilate, calcium 2,5-dihydroxybenzenesulfonate]
- LD50 (acute toxicity study; intravenous): 750 mg/kg
- LD50 (acute toxicity study; oral): > 4000 mg/kg
- number of visualized lymphatics/cm^2 and equivalent left ventricular surface, comparison with Hyaluronidase and control groups (cardiac lymphatics [1]): much higher
- No of lymphatics per cm^2 (cardiac lymphatics [1]): 5.22 ± 0.34 per cm^2
- Equivalence to ventricular surface (cardiac lymphatics [1]): 20.9%
- mean points count/cm^2, LCC zone (non infarcted) (cardiac lymphatics [2]; group I, normal dogs without MI, 360 min, untreated 1,84 ± 0,18, p <0,001): 5,22 ± 0,34 points/cm^2
- ventricular surface occupied by lymphatics (cardiac lymphatics [2]; group I, normal dogs without MI, 360 min, untreated 7,2%, listed as CLS 2210, 100 mg/kg): 20.9%
- ventricular surface occupied by lymphatics (cardiac lymphatics [2]; group I, normal dogs without MI, 360 min, untreated 7,2%, listed as CLS (ca. dobesilate), 100 mg/kg): 20,9%
- mean points count/cm^2, LAD zone (cardiac lymphatics [2]; group I, normal dogs without myocardial infarction, 360 min, untreated 1,81 ± 0,18, p <0,001): 5,20 ± 0,34 points/cm^2
- point counts, normal myocardium (cardiac lymphatics [2]; group I, normal dogs, 6 h, p<0,001 vs untreated normal myocardium): 5,22±0,34 points/cm^2
- ventricular surface occupied by lymphatics (cardiac lymphatics [2]; group II, dogs with MI, 30 min, untreated 3,1%): 9,8%
- mean points count/cm^2, LAD zone (infarcted) (cardiac lymphatics [2]; group II, dogs with MI, 30 min after occlusion, untreated 0,78 ± 0,07, p <0,01, listed as CLS 2210, 100 mg/kg): 2,43±0,06 points/cm^2
- mean points count/cm^2, LAD zone (infarcted) (cardiac lymphatics [2]; group II, dogs with MI, 30 min after occlusion, untreated 0,78 ± 0,07, p <0,01, listed as CLS (ca. dobesilate), 100 mg/kg): 2,43 ± 0,06 points/cm^2
- mean points count/cm^2, LCC zone (non infarcted) (cardiac lymphatics [2]; group II, dogs with MI, 30 min after occlusion, untreated 1,47 ± 0,07, listed as CLS 2210, 100 mg/kg): 2,75±0,22 points/cm^2
- mean points count/cm^2, LCC zone (non infarcted) (cardiac lymphatics [2]; group II, dogs with MI, 30 min after occlusion, untreated 1,47 ± 0,07, listed as CLS (ca. dobesilate), 100 mg/kg): 2,75 ± 0,22 points/cm^2
- ventricular surface occupied by lymphatics (cardiac lymphatics [2]; group III, dogs with MI, 360 min, untreated 3,2%): 24,8%
- mean points count/cm^2, LAD zone (infarcted) (cardiac lymphatics [2]; group III, dogs with MI, 360 min after occlusion, untreated 0,80 ± 0,08, p <0,001, listed as CLS 2210): 6,15±0,18 points/cm^2
- mean points count/cm^2, LAD zone (infarcted) (cardiac lymphatics [2]; group III, dogs with MI, 360 min after occlusion, untreated 0,80 ± 0,08, p <0,001, listed as CLS (ca. dobesilate)): 6,15 ± 0,18 points/cm^2
- mean points count/cm^2, LCC zone (non infarcted) (cardiac lymphatics [2]; group III, dogs with MI, 360 min after occlusion, untreated 2,57 ± 0,05, listed as CLS 2210, 100 mg/kg): 2,45±0,13 points/cm^2
- mean points count/cm^2, LCC zone (non infarcted) (cardiac lymphatics [2]; group III, dogs with MI, 360 min after occlusion, untreated 2,57 ± 0,05, listed as CLS (ca. dobesilate), 100 mg/kg): 2,45 ± 0,13 points/cm^2
- ST-segment elevation [3]: a fall in the ST-segment elevation
- EKG tracings after rapid electrical stimulation [4]: practically normal EKG tracings
- drug's tolerance during the experimental period ([5]; dog, in vivo): perfect
- side-effects attributable to the drug ([5]; dog, in vivo, iv): No side-effects
- infarct size % of whole area of left ventricle, planimetry, MEAN ([5]; mean of 8 dogs, i.v. perfusion 7 days, placebo mean 54,1%): 26,2%
- infarct size % of left ventricle, weight, MEAN ([5]; mean of 8 dogs, i.v. perfusion 7 days, placebo mean 54,4%): 27,9%
- reduction in infarct size compared to placebo ([5]; planimetry and weight analysis, p<0,001): 50 % less
- precordial ST-segment elevation ([6]; EKG tracings, compared to controls): rapid and much greater decrease
- consumption of conventional drugs (analgesic, nitroglycerin, diuretic, lidocain and digitalis) ([6]; compared to control group, i.v. then oral, added to conventional drugs): considerably reduced
- chest pain ([6]; compared to controls): much less
- serum levels of CPK [6, 10]: significant reduction
- serum levels of LDH [6, 10]: significant reduction
- serum levels of SGOT [6, 10]: significant reduction
- short-term mortality ([6]; controls 15%): 2%
- mobilisation of patients (average) ([6]; controls average 7 days): 4 days
- side-effects ([6]; human, in vivo): no side-effects
- tolerability ([6]; human, in vivo): well tolerated
- most effective infused dose (cardiac lymphatics [7]): 100 mg per kg body weight
- mean bleeding time of the rabbit ear (rabbit ear): reduce
- anti-oedema effect (microvessels): anti-oedema
- capillary fragility and permeability (microvessels): reducing
- viscosity lowering effect (microvessels): viscosity lowering effect

Molecule: Hyaluronidase
- No of lymphatics per cm^2 (cardiac lymphatics [1]): 3.45 ± 0.18 per cm^2
- Equivalence to ventricular surface (cardiac lymphatics [1]): 13.8%
- ST segment elevation [8]: reduction
- infarct size (histological planimetric measurements) [8]: decrease
- myocardial CK (creatinine-Kinase) [8]: diminution
- number of lymphatic vessels in the area of infarction [8]: increase
- EKG signs of necrosis [9]: attenuate
